Results reported in the OPERA property sets (Mansouri et al. 2018).
Values after ≈ are worked out from the molar mass of the structure shown.

Going from `COc1cccc(Nc2ccccc2C(=O)O)c1` to `CC(O)CNc1ccccc1C(N)=O` (stereo not given), the logP falls from 4.31 to 0.62.

First: c1ccc2c(c1)ccc1c3ccccc3ccc21
Second: c1ccc2c(c1)ccc1cc3ccc4ccccc4c3nc12
The logP of the first is lower: 5.81 for the first, 6.45 for the second.

First: N#CCC#N
Second: CC(O)C#N (stereo not given)
The logP of the first is higher: -0.6 for the first, -0.94 for the second.

Compared with `Cc1cccc(OCCN(C)C)c1`, `COc1cccc(N=C=S)c1` is higher in logP: 2.05 for the first, 3.68 for the second.

Going from `c1ccc2c(c1)-c1cccc3c1c-2cc1ccccc13` to `CS(=O)(=O)c1cccc2ccccc12`, the logP falls from 5.78 to 1.74.

`CN(CCN)S(=O)(=O)c1ccc(C(C)(C)[N+](=O)[O-])c([N+](=O)[O-])c1` and `N=C(N)NN=Cc1ccccc1[N+](=O)[O-]` are within 0.2 log units of each other in logP: 0.65 for the first, 0.53 for the second.

Compared with `O=C1NCCC2CNC(=O)C12` (stereo not given), `Fc1ccc(C2=CCNCC2)cc1` is higher in logP: -1.95 for the first, 2.37 for the second.

Compared with `C=CCCCCCCCC`, `CCCCCCCCCC` is lower in logP: 5.7 for the first, 5.01 for the second.

First: COc1ccc(CNC(=O)C(=O)c2c[nH]c3ccc([N+](=O)[O-])cc23)cc1
Second: O=C(NCc1ccc(O)cc1)C(=O)c1c[nH]c2ccc([N+](=O)[O-])cc12
The logP of the first is lower: 2.17 for the first, 2.67 for the second.

Compared with `CCOC(=O)CNC(=O)c1cn(CC)c2nc(C)ccc2c1=O`, `CC(=O)OCn1cc2c(=O)n(COC(C)=O)cnc2n1` is lower in logP: 2.07 for the first, -0.2 for the second.

First: C=Cc1cc(C)ccc1C
Second: Nc1ccc(Cl)c(N)c1
The logP of the first is higher: 4.16 for the first, 0.85 for the second.

Going from `CCCCCCCCC(=O)OC` to `CCCCCCOC(=O)c1ccc(N)cc1`, the logP falls from 4.32 to 3.96.

`CC(CCC(=O)NCC(=O)O)C1CCC2C3CC(O)C4CC(O)CCC4(C)C3CCC12C` (stereo not given) and `CCOC1OC2OC3(C)CCC4C(C)C(O)CC(C1C)C24OO3` (stereo not given) are within 0.2 log units of each other in logP: 2.15 for the first, 2.14 for the second.

`COc1cc(CC(=O)O)ccc1O` and `COC(=O)c1ccccc1CS(N)(=O)=O` are within 0.2 log units of each other in logP: 0.33 for the first, 0.37 for the second.

First: ClC1=C(Cl)C2(Cl)C3C(Cl)C(Cl)(Cl)CC3C1(Cl)C2(Cl)Cl (stereo not given)
Second: CC1(CCl)C2CC(Cl)(Cl)C1(C(Cl)Cl)CC2(Cl)Cl (stereo not given)
The logP of the first is higher: 6.2 for the first, 5.49 for the second.

Compared with `CC(C)Nc1nc(Cl)nc(NCCO)n1`, `Cc1nc(NCc2ccccc2)nc(C(Cl)(Cl)Cl)n1` is higher in logP: 0.78 for the first, 3.86 for the second.

First: O=Cc1ccc(F)cc1
Second: N=C(N)NN=Cc1ccc(Cl)cc1
The logP of the first is higher: 1.54 for the first, 0.96 for the second.

Compared with `NCCc1nccs1`, `NS(=O)(=O)c1nc2ccc(OCCO)cc2s1` is higher in logP: 0.16 for the first, 0.59 for the second.

`OC(Cn1cncn1)(c1ccc(F)cc1)c1ccccc1F` (stereo not given) and `CC(=O)OCN1C(=O)NC(c2ccccc2)(c2ccccc2)C1=O` are within 0.2 log units of each other in logP: 2.29 for the first, 2.23 for the second.

Compared with `CCn1ccc(=O)c(O)c1C`, `CCCN1CCOC2c3cc(O)ccc3CCC21` (stereo not given) is higher in logP: -0.31 for the first, 2.44 for the second.

First: O=C(OCc1ccccc1)c1cccnc1
Second: c1ccc(CNc2[nH]cnc3ncnc2-3)cc1
The logP of the first is higher: 2.4 for the first, 1.57 for the second.

Compared with `O=P(O)(O)CCCl`, `O=P(O)(O)CN(CCCCCCN(CP(=O)(O)O)CP(=O)(O)O)CP(=O)(O)O` is lower in logP: -0.22 for the first, -4.43 for the second.

First: [N-]=[N+]=CC(=O)OC[C@H](N)C(=O)O
Second: NC(=O)N=NC(N)=O
The logP of the first is lower: -2 for the first, -1.7 for the second.

First: Clc1cc2c(Cl)ccc(Cl)c2c(Cl)c1Cl
Second: Clc1cc2c(Cl)cccc2c(Cl)c1Cl
The logP of the first is higher: 6.8 for the first, 5.77 for the second.

Compared with `CNC(N)=S`, `CC1CCCC(C)C1O` (stereo not given) is higher in logP: -0.69 for the first, 2.1 for the second.

`CC1=CCC(=C(C)C)CC1` and `CC(=O)c1c(C)c([N+](=O)[O-])c(C(C)(C)C)c([N+](=O)[O-])c1C` are within 0.2 log units of each other in logP: 4.47 for the first, 4.3 for the second.

First: CCCCN(C)N=O
Second: CCCN(CCOc1c(Cl)cc(Cl)cc1Cl)C(=O)n1ccnc1
The logP of the first is lower: 1.08 for the first, 4.1 for the second.

First: Cc1c(Cl)c(Cl)c(C(C)C)c(Cl)c1Cl
Second: Cc1c(Cl)ccc(Cc2ccc(Cl)cc2Cl)c1Cl
The logP of the first is lower: 6.8 for the first, 7.2 for the second.

Going from `OCCCNc1ccccc1` to `NS(=O)(=O)c1cc2c(cc1Cl)N=C(CSCc1ccccc1)NS2(=O)=O`, the logP rises from 0.57 to 1.73.

First: CCCCCCCCCCOC(=O)c1ccccc1C(=O)OCCCCCCCCCC
Second: CCCNC(=O)CCC(NS(=O)(=O)c1ccc(C)cc1)C(=O)O (stereo not given)
The logP of the first is higher: 9.05 for the first, 0.02 for the second.

Going from `Cc1nc(N2CCOCC2)c(C#N)cc1-c1ccccc1` to `CC(O)CNc1ncc(-c2ccncc2)cc1C#N` (stereo not given), the logP falls from 3.65 to 0.79.

First: Cc1ccc(Br)c(C)c1NC(=O)CN(CC(=O)O)CC(=O)O
Second: COC(=O)c1ccsc1S(=O)(=O)NC(=O)Nc1nc(OC)nc(OC)n1
The logP of the first is lower: -0.28 for the first, 1.3 for the second.

Going from `N#CCCN(N)c1nc2cc(C(F)(F)F)ccc2o1` to `CC(=O)OCCN(CCC#N)c1ccc(N=Nc2nc3ccc([N+](=O)[O-])cc3s2)cc1`, the logP rises from 1.72 to 4.08.

Compared with `CCC(C)n1ncn(-c2ccc(N3CCN(c4ccc(OC[C@H]5CO[C@](Cn6cncn6)(c6ccc(Cl)cc6Cl)O5)cc4)CC3)cc2)c1=O` (stereo not given in full), `CC(=O)c1ccc(NCc2cnc3nc(N)nc(N)c3c2C)cc1` is lower in logP: 5.66 for the first, 1.45 for the second.

First: CS(=O)CCCOc1ccc([N+](=O)[O-])cc1 (stereo not given)
Second: COc1ccc(S(=O)(=O)c2coc(S(N)(=O)=O)c2)cc1
The logP of the first is lower: 0.93 for the first, 1.17 for the second.

First: CC1(C)[C@H](/C=C(\Cl)C(F)(F)F)[C@@H]1C(=O)O[C@H](C#N)c1cccc(Oc2ccccc2)c1
Second: CC(=O)OCCN(CCC#N)c1ccc(N=Nc2nc3ccc([N+](=O)[O-])cc3s2)cc1
The solubility of the first is 140-fold lower: 1.11e-05 mM (≈ 0.005 µg/mL) for the first, 0.00157 mM (≈ 0.69 µg/mL) for the second.

First: OCC(S)CS (stereo not given)
Second: COC(=O)CCCCC(=O)OC
The solubility of the first is 20-fold higher: 700 mM (≈ 87000 µg/mL) for the first, 34.4 mM (≈ 6000 µg/mL) for the second.

Going from `O=C(O)c1ccccc1S(=O)(=O)O` to `Cc1cccc(C(C)C)c1`, the solubility falls from 2470 mM (≈ 500000 µg/mL) to 0.317 mM (≈ 42.5 µg/mL) (7800-fold).

First: O=P(O)(O)CN(CCCCCCN(CP(=O)(O)O)CP(=O)(O)O)CP(=O)(O)O
Second: O=P(OC(Cl)CCCl)(OC(Cl)CCCl)OC(Cl)CCCl (stereo not given)
The solubility of the first is 130-fold higher: 30.5 mM (≈ 15000 µg/mL) for the first, 0.232 mM (≈ 100 µg/mL) for the second.

First: CC(=O)c1c(C)c([N+](=O)[O-])c(C(C)(C)C)c([N+](=O)[O-])c1C
Second: ClC1=C(Cl)C(Cl)(Cl)C(Cl)(Cl)C1(Cl)Cl
The solubility of the first is 22-fold higher: 0.00646 mM (≈ 1.9 µg/mL) for the first, 0.000291 mM (≈ 0.1 µg/mL) for the second.
